According to article PMC7801313, “Effect of lurbinectedin on the QTc interval in patients with advanced solid tumors: an exposure–response analysis” (Cancer Chemotherapy and Pharmacology, 2020):
Values joined by “and” are separate entries in the source; they are usually repeats but may differ in a detail not shown here. Identical values can stand only once.

Legend:
Format in all cases: in vivo, human
[1] = tested on: patients with advanced solid tumors; test: QT evaluation study, by time point ECG analysis
Procedure: This was a QT evaluation study (EudraCT No. 2015-000206-18; ClinicalTrials.gov: NCT02451007) performed at a subset of sites participating in a multicenter, open-label, exploratory, phase II basket clinical trial (EudraCT No: 2014-003773-42; ClinicaTrials.gov: NCT02454972) conducted in patients with selected advanced solid tumors. The schedule used in this QT evaluation study was that evaluated in the basket trial: lurbinectedin 3.2 mg/m^2 given as a 1-h i.v. infusion q3wk.
A screening ECG was collected between day -10 and day -2 before the first lurbinectedin infusion (day 1 of cycle 1) and transmitted to the central ECG laboratory to confirm the patient’s eligibility.
On day 1 of cycle 1, two baseline triplicate ECGs (three 10-s digital ECGs in close succession) were collected: one before administration of prophylactic medication or pre-dose 1, and the other after antiemetic prophylactic medication (palonosetron 0.25 mg i.v.) and before the start of the lurbinectedin infusion or pre-dose 2 (also on cycle 2).
(§1) In cycle 1 and cycle 2, the following triplicate ECGs were collected 5–10 min before their time-matched PK time points: 5 min before end of the lurbinectedin infusion (EOI), 30 min, 1, 3, 24, 72 (only on cycle 1), and 168 h after EOI.
A 12-lead automated digital ECG recorder [Mortara Instrument (Milwaukee, WI, USA) ELI-150 ECG 12-lead digital recorder] was provided by a third-party central ECG laboratory (eResearchTechnology, Inc., Philadelphia, PA, USA). Analysis and reporting of ECG data were performed by a limited number of skilled readers who were blinded to treatment time point. ECG review of a particular patient was performed by a single reader. Interval duration measurements were collected using computer-assisted caliper placements on three consecutive beats. A cardiologist then verified the interval durations and performed the morphology analysis, noting any T-U wave complex compatible with an effect on cardiac repolarization. The ECG analysis was conducted in Lead II or in Lead V5 if Lead II was not analyzable. If Lead V5 was not analyzable, then Lead V2 was used, and followed by the most appropriate lead if necessary. The mean of triplicate ECG measures at each time point for each patient was used for analyses.
Fridericia’s formula [6] is currently considered the most accurate method for correcting the effect of HR on QT interval [7], and was used as the main method for HR correction for QT (QTcF). Nevertheless, graphical inspection of QTcF and QT corrected by Bazett’s formula (QTcB) versus RR interval plots and statistical comparison of resulting squared linear regression slopes (R^2) was performed.
The primary endpoint was the change in QTc corrected by the Fridericia’s formula (ΔQTcF) between each scheduled post-baseline ECG time point and baseline at cycle 1. A patient was considered evaluable for the primary endpoint if he/she had baseline and one or more post-baseline ECG assessments.
Secondary endpoints were the ΔQTcF/lurbinectedin plasma concentration relationship, and change in other ECG parameters (i.e., HR, QRS, and PR).
The primary comparison was ΔQTcF at each ECG time point. A non-inferiority criterion of 20 ms was used to establish the absence of post-baseline QTc prolongation when compared to baseline. An analysis of variance model with mixed effects was fitted, with ΔQTc data as the dependent variable and ECG time point as the fixed effects, and patient as random effect.
Using the estimated least square means (LSM) and intra-patient standard deviation (Std) obtained from this model, a two-sided 90% confidence interval (CI) was calculated for each LSM ΔQTc. Non-inferiority was to be concluded if the upper bound (UB) of the one-sided 95% CI fell below 20 ms at each ECG time point.

[2] = lurbinectedin plasma pharmacokinetics in the QT evaluation study
Procedure: as §1
Pharmacokinetic (PK) profiles of lurbinectedin were obtained on cycle 1 and cycle 2. Following ECGs’ acquisition, blood samples were collected into K3EDTA tubes. Tubes were gently inverted several times and centrifuged at 2000 × g for 10 min at 4 °C to separate the plasma.
Plasma concentrations of lurbinectedin were measured by a validated liquid chromatography–mass spectrometry assay (Dynakin S.L., Spain), with ranges of 0.1–50 µg/L. The within- and between-day precisions ranged from 2.7 to 12.9% and from 5.1 to 10.7%, respectively. The within- and between-day accuracy (bias) ranged from 10 to 12% and from 5 to 6%, respectively.
Datasets were prepared using SAS Enterprise Guide v.7.11 HF3 (SAS Institute Inc., Cary, NC, USA). Non-compartmental PK parameters were determined using Phoenix WinNonlin v.6.3 (Certara, USA). Non-linear mixed-effect modelling was performed in NONMEM v.7.3.0 (GloboMax LLC, Hanover, MD, USA). Graphical and all other statistical analyses were performed in R v.3.2.5 (R Foundation for Statistical Computing, Vienna, Austria).

patients = test: clinical toxicity of lurbinectedin as a single agent; conditions: to date
[3] = Cycle 1, 1.5 h after start of infusion
[4] = Cycle 1, 2 h after start of infusion
[5] = Cycle 1, 4 h after start of infusion
[6] = Cycle 1 Day 1, 30 min after end of infusion
[7] = Cycle 1 Day 1, 1 h after end of infusion
[8] = Cycle 1 Day 1, 3 h after end of infusion
[9] = Cycle 1 Day 2, 24 h after end of infusion
[10] = Cycle 1 Day 4, 72 h after end of infusion
[11] = Cycle 1 Day 8, 168 h after end of infusion
[12] = Cycle 2, 2 h after start of infusion
[13] = Cycle 2 Day 1, 5 min before end of infusion
[14] = Cycle 2 Day 1, 5 min before start of infusion
[15] = Cycle 2 Day 1, 30 min after end of infusion
[16] = Cycle 2 Day 1, 1 h after end of infusion
[17] = Cycle 2 Day 8, 168 h after end of infusion
[18] = all time points other than 3 h after end of cycle 2 infusion

COc1ccc2[nH]c3c(c2c1)CCN[C@]31CS[C@@H]2c3c(OC(C)=O)c(C)c4c(c3[C@H](COC1=O)N1[C@@H]2[C@H]2c3c(cc(C)c(OC)c3O)C[C@@H]([C@@H]1O)N2C)OCO4 [lurbinectedin, Lurbinectedin]
effect on cardiac repolarization ([1]; 3.2 mg/m^2 1-h i.v. q3wk): not associated with a clinically relevant effect on cardiac repolarization | values above reference limits QTcF > 480 ms and ΔQTcF > 60 ms ([1]; 39 evaluable patients): No single value was above the reference limit values of concern | ΔQTcF, mean (Stdv) ([1]; Cycle 1, 0.92 h after start of infusion): 3.33 (8.46) ms | ΔQTcF, mean (Stdv) [1, 3]: 1.76 (8.25) ms | ΔQTcF, mean (Stdv) [1, 4]: 1.84 (10.88) ms | highest mean change from baseline in HR (± Std) ([1]; Cycle 1, 3 h after end of infusion): 16.7 (± 11.0) bpm and 16.7 bpm | ΔQTcF, mean (Stdv) [1, 5]: 1.33 (10.39) ms | ΔQTcF UB90%CI ([1]; Cycle 1 Day 1, 5 min before end of infusion): 5.51 ms | ΔQTcF LSmean ([1]; Cycle 1 Day 1, 5 min before end of infusion, 3.2 mg/m^2 1-h i.v.): 3.32 ms | ΔQTcF LSmean [1, 6]: 1.76 ms | ΔQTcF UB90%CI [1, 6]: 3.93 ms | ΔQTcF LSmean [1, 7]: 1.84 ms | ΔQTcF UB90%CI [1, 7]: 4.69 ms | ΔQTcF LSmean [1, 8]: 1.32 ms | ΔQTcF UB90%CI [1, 8]: 4.05 ms | ΔQTcF LSmean [1, 9]: -8.24 ms | ΔQTcF UB90%CI [1, 9]: -5.26 ms | ΔQTcF LSmean [1, 10]: -12.38 ms | ΔQTcF UB90%CI [1, 10]: -9.39 ms | ΔQTcF LSmean [1, 11]: -5.2 ms | ΔQTcF UB90%CI [1, 11]: -2.41 ms | ΔQTcF, mean (Stdv) ([1]; Cycle 2, 0.92 h after start of infusion): 1.54 ms and 1.54 (12.36) ms | ΔQTcF, mean (Stdv) ([1]; Cycle 2, 1.5 h after start of infusion): 1.99 (12.06) ms | ΔQTcF, mean (Stdv) [1, 12]: 1.92 (13.65) ms | ΔQTcF, mean (Stdv) ([1]; Cycle 2, 4 h after start of infusion (largest mean)): 4.69 ms and 4.69 (15.28) ms | ΔQTcF LSmean [1, 13]: 2.25 ms | ΔQTcF UB90%CI [1, 13]: 5.68 ms | ΔQTcF LSmean [1, 14]: -0.46 ms | ΔQTcF UB90%CI [1, 14]: 2.35 ms | ΔQTcF LSmean [1, 15]: 2.32 ms | ΔQTcF UB90%CI [1, 15]: 5.66 ms | ΔQTcF LSmean [1, 16]: 2.73 ms | ΔQTcF UB90%CI [1, 16]: 6.54 ms | ΔQTcF UB90%CI ([1]; Cycle 2 Day 1, 3 h after end of infusion (largest UB)): 9.6 ms and 9.60 ms | ΔQTcF LSmean ([1]; Cycle 2 Day 1, 3 h after end of infusion (maximum)): 5.39 ms | ΔQTcF LSmean [1, 17]: -4.22 ms | ΔQTcF UB90%CI [1, 17]: -1.08 ms | variation between lowest and largest mean change from baseline of PR interval ([1]; all time points and cycles): 7.8 ms | variation between lowest and largest mean change from baseline of QRS duration ([1]; all time points and cycles): 2.5 ms | LSM ΔQTcF at other time points [1, 18]: ≤ 3.3 ms | UB of the 90% CI of ΔQTcF at other time points [1, 18]: < 6.6 ms | Umax (time when the largest mean ΔQTcF is reached) ([1]; cycle 1): 0.92 h | patients with ΔHR > 25% ([1]; cycle 1): 44% | difference between Umax and Tmax ([1]; cycle 2): 3.08 h | patients with ΔHR > 25% ([1]; cycle 2): 49% | highest mean change from baseline in HR (± Std) ([1]; cycle 2, 3 h after end of infusion): 17.5 (± 11.7) bpm and 17.5 bpm | effects on atrioventricular conduction or depolarization (mean changes in PR and QRS intervals) ([1]; in vivo): No significant effects | observed lurbinectedin concentration, mean (Stdv) ([2]; Cycle 1, 0.92 h after start of infusion (Cmax)): 106.02 (54.52) µg/L | observed lurbinectedin concentration, mean (Stdv) [2, 3]: 40.01 (24.35) µg/L | observed lurbinectedin concentration, mean (Stdv) [2, 4]: 27.22 (14.05) µg/L | observed lurbinectedin concentration, mean (Stdv) [2, 5]: 17.86 (8.07) µg/L | observed lurbinectedin concentration, mean (Stdv) ([2]; Cycle 1, 25 h after start of infusion): 3.84 (1.87) µg/L | observed lurbinectedin concentration, mean (Stdv) ([2]; Cycle 1, 73 h after start of infusion): 1.53 (1.13) µg/L | observed lurbinectedin concentration, mean (Stdv) ([2]; Cycle 1, 169 h after start of infusion): 0.51 (0.45) µg/L | observed lurbinectedin concentration, mean (Stdv) ([2]; Cycle 2, 0.92 h after start of infusion (Cmax)): 136.60 (145.04) µg/L | observed lurbinectedin concentration, mean (Stdv) [2, 12]: 28.22 (16.84) µg/L | observed lurbinectedin concentration, mean (Stdv) ([2]; Cycle 2, 4 h after start of infusion): 18.82 (10.94) µg/L | observed lurbinectedin concentration, mean (Stdv) ([2]; Cycle 2, 169 h after start of infusion): 0.56 (0.57) µg/L | Tmax ([2]; cycle 1): 0.92 h | mean clearance (non-compartmental) ([2]; cycle 1, 39 patients): 11.8 L/h | mean volume of distribution (non-compartmental) ([2]; cycle 1, 39 patients): 347.7 L | Tmax ([2]; cycle 2): 4 h | cardiac toxicity concerns (patients): no cardiac toxicity concerns
